Measurements as given in patent publication US20250101204A1, “COMPOSITIONS AND METHODS FOR PROTECTING AGAINST CELL DAMAGE AND INFLAMMATION” (priority 2022, published 2025).
Changes are numbered by the printed parent chain. “Also recorded” adds a separate entry of the source. Where two headings read alike, the source gives them in different places. Peptide text beside a SMILES is read from it. * marks the point of attachment. Cbz = O=C(OCc1ccccc1)*

Columns and labels:
HMGB1 [1] = target: T1, HMGB1 (Homo sapiens, UniProt P09429); assay: HMGB1 cytosol/nuclear distribution in fractionated PASMC; type: cell-based; conditions: for cytosol and nuclear levels of HMGB1: PASMC cytosolic and nuclear fraction; for exit of nuclear HMGB1 to the cytosol: especially evident in male cells
T1 construct: endogenous in cells; host or cells: pulmonary artery smooth muscle cells (PASMC), male and female
T1 sequence (P09429 1-215): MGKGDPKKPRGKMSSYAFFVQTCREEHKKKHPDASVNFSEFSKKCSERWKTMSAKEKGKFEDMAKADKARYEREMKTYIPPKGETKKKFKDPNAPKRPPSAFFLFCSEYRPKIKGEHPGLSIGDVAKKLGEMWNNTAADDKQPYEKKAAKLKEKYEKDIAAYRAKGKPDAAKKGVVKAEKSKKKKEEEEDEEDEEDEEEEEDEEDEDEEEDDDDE
Source text: FIGS. 1A, 1B, 1C, and 1D show only intracellular Cysteine^106 lowers HMGB1 levels in both fractions. FIGS. 1A and 1B show peptides that bind to HMGB1^Cys106 but not HMGB1^Cys23/45 reduce HMGB1 levels in PASMC cytosolic and nuclear fraction.
FIGS. 2A and 2B show […] increases HMGB1 expulsion from the nucleus to cytosol. A proteasome inhibitor (e.g., MG 132) restores cytosolic (FIG. 2A) and nuclear (FIG. 2B) HMGB1 levels reduced by αHMGB1^Cys106 peptide.
(§1) To study the activities of HMGB1 cysteines, peptides were designed that bind to the specific regions of HMGB1 and, by shielding either Cys106 or Cys23/45, prevent their interaction with the downstream targets. The peptides with cell-penetrating TAT sequences were used to study the intracellular role of HMGB1 cysteines, while peptides without TAT served as extracellular controls. Fractionating pulmonary artery smooth muscle cells (PASMC) allowed the evaluation of HMGB1 cytosol/nuclear distribution. […] The protective role of peptide in vivo was estimated using the rat Sugen/Hypoxia PH model. Given the discovered sex difference in the HMGB1-mediated signaling, the in vitro and in vivo studies were replicated in male and female animals and cells.
(§2) To study the activities of HMGB1 cysteines, peptides were designed with cell-penetrating TAT sequences that bind to either Cys106 or Cys23/45 and prevent the interaction of these cysteines with the downstream targets. The intracellular activities of peptides were evaluated by measuring HMGB1 cytosol/nuclear distribution and the ability to regulate the recombinant HMGB1 binding to double-stranded DNA. The protective role of the Cys106-shielding peptide (αHMGB1^Cys106; SEQ ID NO: 4) was estimated using the rat Sugen/Hypoxia (Su/Hx) PAH model and human endothelial pulmonary artery cells (hPAEC).

[2] = target: T2, recombinant fully reduced HMGB1 (Homo sapiens, UniProt P09429); assay: HMGB1 binding to calf thymus double-stranded DNA cellulose with or without shielding peptide; type: biochemical
T2 sequence (P09429 1-215): T1 sequence (P09429 1-215)
Protocol: The left two gel blots show HMGB1 elution after incubation with DNA cellulose.
as §1
as §2, with “The protective role of the Cys106-shielding peptide (αHMGB1^Cys106; SEQ ID NO: 4) was estimated using the rat Sugen/Hypoxia (Su/Hx) PAH model and human endothelial pulmonary artery cells (hPAEC).” left out

p53 [3] = assay: p53 levels in nuclei of PASMC; type: cell-based
Source text: as §1

TLR4 = assay: cytosolic and nuclear TLR4 protein levels; type: cell-based
Source text: as §1

apoptosis = assay: cell apoptosis induced by the p53 activator; type: cell-based
[4] = tested on: human pulmonary artery endothelial cells (HPAEC); assay: apoptosis in HPAEC stimulated by RITA; type: cell-based
Protocol: as §2

[5] = tested on: human pulmonary artery endothelial cells (HPAEC); assay: genotoxic stress induced in HPAEC by Doxorubicin; type: cell-based; conditions: Doxorubicin 1 μg/ml for 24 h
Protocol: as §2

[6] = tested on: rat Sugen/Hypoxia (Su/Hx) PAH model; assay: rat Sugen/Hypoxia (Su/Hx) PAH model, hemodynamics and right ventricle; type: in vivo; conditions: for right ventricle (RV) systolic pressure / protection of the RV: females, 2.5 mg/kg/day i.p.; for right ventricle (RV) systolic pressure: early stage of PH; for protection of the RV: later stage of PH; for hemodynamic parameters / protection in males: male PH rats
Source text: as §1, with “cells. […]” for “cells.”
as §2, with “(hPAEC). […]” for “(hPAEC).”

HMGB1 [7] = target: T3, HMGB1 (Rattus norvegicus, UniProt P63159); assay: plasma HMGB1 levels in Su/Hx rats; type: in vivo
T3 construct: from tissue; host or cells: plasma of Su/Hx rats
T3 sequence (P63159 1-215): T1 sequence (P09429 1-215) with E189D, D202E
Source text: FIGS. 11A and 11B show the sex differences in plasma HMGB1 levels in response to αHMGB1^Cys106 peptides (e.g., SEQ. ID NO: 4) in early PH stages. Note: SU2 is related to the 2 weeks after exposure to SU5416 (PAH inducer), and is indicative of a relatively early disease stage; SU5 means 5 weeks after exposure to SU5416, and is indicative of an advanced stage of the disease.
The cytosol and nuclear levels of HMGB1 were affected by a cell-penetrating peptide designed to shield Cys106 (TAT-α-HMGB1^Cys106, or α-Cys106) and not any other peptide.

[8] = tested on: lungs and heart of Su/Hx rats; assay: lung and heart cell damage readouts in Su/Hx rats (apoptosis, senescence, necroptosis, genotoxic stress, fibrosis, hypertrophy); type: in vivo, rat; conditions: for genotoxic stress in vivo: Su/Hx rats, in b88 males; for senescence: female and early-stage male PAH
p53 [9] = assay: p53 expression in vivo in Su/Hx rats; parameters: species or system rat; conditions: either sex
[10] = listed as α-Cys106, 2.5 mg/kg/day

## CC(C)C[C@@H](C=O)NC(=O)[C@H](CC(C)C)NC(=O)[C@H](CC(C)C)NC(=O)OCc1ccccc1 [MG 132, reference compound] (Cbz-Leu-Leu-Leu-aldehyde)
HMGB1 [1]; FIGS. 2A, 2B
  cytosolic and nuclear HMGB1 levels reduced by αHMGB1^Cys106 peptide, effect of proteasome inhibitor: restores

## FFLFCSEYRPKIKGRKKRRQRRRPQ [αHMGB1^Cys106 peptide, cell-penetrating TAT peptide designed to shield HMGB1 Cys106]
[2]; FIG. 3
  HMGB1 binding to DNA (HMGB1 elution after incubation with DNA cellulose): prevents HMGB1 binding to DNA
[2]; recombinant HMGB1, double-stranded DNA cellulose
  decrease in HMGB1 binding to DNA: ~5.9 fold
HMGB1 [1]
  degradation of HMGB1: lysosomal degradation
  cytosol and nuclear levels of HMGB1: reduced; also recorded: affected
  exit of nuclear HMGB1 to the cytosol: enhancing the nuclear HMGB1 exit to the cytosol
HMGB1 [1]; listed as HMGB1^Cys106 peptide
  cytosol and nuclear levels of HMGB1: reduces HMGB1 levels
HMGB1 [1]; listed as TAT-α-HMGB1^Cys106
  cytosol and nuclear levels of HMGB1: affected
HMGB1 [1]; listed as α-Cys106
  exit of nuclear HMGB1 to the cytosol: enhanced the exit of nuclear HMGB1 to the cytosol
  degradation of HMGB1: induced its proteasomal degradation
HMGB1 [1]; relative to untreated 1±0.097, N=6
  HMGB1 level in PASMC: 0.428±0.045
HMGB1 [1]; α-Cys106 plus proteasome inhibitor MG132, 10 μM, 1 hr, untreated 1±0.097, N=6
  HMGB1 level in PASMC with proteasome inhibitor: 0.885±0.049
p53 [3]
  p53 levels / expression: reduces p53 levels
p53 [3]; listed as α-Cys106
  p53 levels / expression: negatively affected
TLR4
  TLR4 protein levels / expression: reduces cytosolic and nuclear TLR4 protein levels
TLR4; listed as α-Cys106
  TLR4 protein levels / expression: negatively affected
apoptosis
  cell apoptosis: attenuates apoptosis
apoptosis; listed as α-Cys106
  cell apoptosis: reduced cell apoptosis
[4]
  apoptosis in HPAEC: anti-apoptotic effect
[5]
  genotoxic stress in HPAEC: protective effect
[6]; female Su/Hx rats, preventive study, 2.5 mg/kg/day i.p. for 2 wks, Su/Hx alone 73.2±3.4, p=0.0002
  right ventricle systolic pressure: 50.4±3.0 mmHg
[6]; female Su/Hx rats, treatment study, 2.5 mg/kg/day i.p. for 2 wks, Su/Hx alone 110.5±6.3, p=0.0005
  right ventricle systolic pressure: 70.0±2.8 mmHg
[6]; 2.5 mg/kg/day
  right ventricle (RV) systolic pressure: decreases right ventricle (RV) systolic pressure
  protection of the RV: protects the RV
[6]; [10]
  right ventricle (RV) systolic pressure: decreased right ventricle (RV) systolic pressure
  protection of the RV: protected the RV
[6]
  hemodynamic parameters / protection in males: protected only by treatment protocol
[6]; listed as α-Cys106
  hemodynamic parameters / protection in males: no changes
[6]; male Su/Hx rats, treatment protocol, 2.5 mg/kg/day i.p. for 2 wks, Su/Hx alone 101.7±2.7, p=0.0007, N=5-8
  right ventricle systolic pressure: 73.4±6.4 mmHg
[6]; rat Su/Hx, 2.5 mg/kg/day i.p. for 2 wks, 2.5 mg/kg/day
  PAH severity in Su/Hx model: protective and treatment effects; also recorded: significantly attenuated PAH
HMGB1 [7]; females, 2.5 mg/kg/day i.p.
  plasma HMGB1 levels: reduced plasma HMGB1 levels
HMGB1 [7]; male PH rats
  plasma HMGB1: no changes
[8]
  genotoxic stress in vivo: protects against genotoxic stress
  senescence: protects against senescence
[8]; listed as αHMGB1^Cys106
  genotoxic stress in vivo: inhibited genotoxic stress
  senescence: reduced pulmonary apoptosis and senescence
[8]; female Su/Hx rats
  apoptosis in the lungs: decreases apoptosis; also recorded: mediates protection against apoptosis
[8]; female Su/Hx rats, listed as α-Cys106
  apoptosis in the lungs: anti-apoptotic effect
[8]; female Su/Hx rats, listed as αHMGB1^Cys106
  apoptosis in the lungs: reduced pulmonary apoptosis and senescence
[8]; heart of male Su/Hx rats
  cardiac fibrosis: anti-fibrotic activity
[8]; male Su/Hx rats
  apoptosis in the lungs: does not manifest
[8]; males at early PAH
  necroptosis: protects against necroptosis
[8]; rat, in vivo
  cardiomyocyte hypertrophy: protective effect
p53 [9]
  expression of p53 in vivo: reduces expression of p53
p53 [9]; listed as αHMGB1^Cys106
  expression of p53 in vivo: negative regulation of p53 expression

## SIGDVAKKLGEMWNNGRKKRRQRRRPQ [HMGB1^Cys23/45]
HMGB1 [1]
  cytosol and nuclear levels of HMGB1: not
